The source of these data is US20250353891A1 (MEDIMMUNE LIMITED, priority 2022, published 2025).

In assay [1] the target is human GLP-1 receptor (hGLP-1R) (Homo sapiens, UniProt P43220). Kind of assay: cAMP production (HTRF) in CHO cells expressing hGLP-1R. In kind it is cell-based. Further details: expressed in transfected cells. To be noted: for EC50: Table 7, peptides modified at position 20, cAMP in CHO hGLP-1R cells, geometric mean, read-out: hGLP-1R EC50; for % Relative Potency Ratio: Table 7, % GLP-1R activity relative to GLP-1 / % GlucR activity relative to glucagon. Put shortly: (§1)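 Potency values represent EC50 from 4-parameter logistic curves of HTRF % Delta F signal. Receptor-expressing CHO cells (hGCGR 2×10^5 cells/mL, hGLP-1R 1×10^5 cells/mL) were exposed for 30 min at room temperature before two-step cAMP detection.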
human GLP-1 receptor (hGLP-1R), sequence (P43220 24-463): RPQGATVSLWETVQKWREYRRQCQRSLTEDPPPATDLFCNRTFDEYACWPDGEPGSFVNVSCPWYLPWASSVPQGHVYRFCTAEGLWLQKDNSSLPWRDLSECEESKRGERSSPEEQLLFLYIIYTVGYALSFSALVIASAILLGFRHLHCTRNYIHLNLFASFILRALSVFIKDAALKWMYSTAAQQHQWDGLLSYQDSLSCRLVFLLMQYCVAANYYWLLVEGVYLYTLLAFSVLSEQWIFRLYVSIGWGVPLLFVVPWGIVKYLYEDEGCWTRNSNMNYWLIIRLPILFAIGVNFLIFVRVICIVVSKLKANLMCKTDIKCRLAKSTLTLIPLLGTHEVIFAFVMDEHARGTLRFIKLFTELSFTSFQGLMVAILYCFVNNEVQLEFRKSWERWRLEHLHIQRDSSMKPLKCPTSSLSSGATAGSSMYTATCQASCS

Assay [2] deals with human glucagon receptor (hGCGR) (Homo sapiens, UniProt P47871). Kind of assay: cAMP production (HTRF) in CHO cells expressing hGCGR. It counts as cell-based. Further details: expressed in transfected cells. The settings on record: Table 7, peptides modified at position 20; cAMP in CHO hGCGR cells; geometric mean; read-out: hGluc-R EC50. Put shortly:
as §1

In general, EC50 refers to the concentration that produces a half-maximal response.

Starred links: 1 amine or outer side, 2 acyl side, 3 side chain; linkers in the order of their positions; H or OH if unused. Non-standard residues stand in square brackets, D forms with d. Residues, ends and D or L forms follow the SMILES beside them. Groups on a side chain read outwards from the residue. *: point of attachment. C20 diacid = O=C(O)CCCCCCCCCCCCCCCCCCC(=O)*; C18 diacid = O=C(O)CCCCCCCCCCCCCCCCC(=O)*; γGlu = O=C(O)[C@H](CCC(=O)[*:2])N[*:1]; αMeF = C[C@](N)(Cc1ccccc1)C(=O)O; AEEA = NCCOCCOCC(=O)O; Aib = CC(C)(N)C(=O)O

human glucagon receptor (hGCGR), sequence (P47871 26-477): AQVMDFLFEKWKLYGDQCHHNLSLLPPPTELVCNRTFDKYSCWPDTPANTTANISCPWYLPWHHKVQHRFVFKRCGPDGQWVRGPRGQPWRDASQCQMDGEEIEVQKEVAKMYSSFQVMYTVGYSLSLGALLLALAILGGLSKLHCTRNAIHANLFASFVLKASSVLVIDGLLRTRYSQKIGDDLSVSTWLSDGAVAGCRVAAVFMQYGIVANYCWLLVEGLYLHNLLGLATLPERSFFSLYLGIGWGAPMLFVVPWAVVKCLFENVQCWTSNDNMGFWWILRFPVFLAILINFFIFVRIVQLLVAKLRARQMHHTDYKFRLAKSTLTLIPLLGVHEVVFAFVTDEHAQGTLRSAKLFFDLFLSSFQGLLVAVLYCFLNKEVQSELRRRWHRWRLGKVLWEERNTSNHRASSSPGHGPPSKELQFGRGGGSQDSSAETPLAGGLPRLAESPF

With `CC[C@H](C)[C@H](NC(=O)C(C)(C)NC(=O)[C@H](CCC(N)=O)NC(=O)[C@@H](NC(=O)[C@](C)(Cc1ccccc1)NC(=O)[C@H](CC(=O)O)NC(=O)[C@H](CCCCNC(=O)COCCOCCNC(=O)COCCOCCNC(=O)CC[C@H](NC(=O)CC[C@H](NC(=O)CCCCCCCCCCCCCCCCCCC(=O)O)C(=O)O)C(=O)O)NC(=O)[C@H](C)NC(=O)[C@H](C)NC(=O)[C@H](CCCNC(=N)N)NC(=O)[C@H](CO)NC(=O)[C@H](CC(=O)O)NC(=O)[C@H](CC(C)C)NC(=O)[C@](C)(Cc1ccccc1)NC(=O)[C@H](CCCCN)NC(=O)[C@H](CO)NC(=O)[C@@H](NC(=O)[C@H](CC(=O)O)NC(=O)[C@H](CO)NC(=O)[C@@H](NC(=O)[C@](C)(Cc1ccccc1)NC(=O)[C@H](CO)NC(=O)CNC(=O)[C@H](Cc1c[nH]cn1)NC(=O)C(C)(C)NC(=O)[C@@H](N)Cc1c[nH]cn1)[C@@H](C)O)C(C)C)C(C)C)C(=O)N[C@@H](C)C(=O)N[C@@H](CC(N)=O)C(=O)N[C@H](C(=O)NCC(=O)NCC(N)=O)[C@@H](C)O` [Peptide 232] (H-H[Aib]HGS[αMeF]TSDVSK[αMeF]LDSRAAK([AEEA-AEEA-γGlu-γGlu-C20 diacid])D[αMeF]VQ[Aib]IANTGG-NH2; N-terminus assumed), the EC50 in assay [1] is 0.11 nM; in assay [2], 1.02 nM. Also, in assay [1], the “% Relative Potency Ratio” value was found to be 18.4.

Take `CC[C@H](C)[C@H](NC(=O)C(C)(C)NC(=O)[C@H](CCC(=O)O)NC(=O)[C@@H](NC(=O)[C@](C)(Cc1ccccc1)NC(=O)[C@H](CC(=O)O)NC(=O)[C@H](CCCCNC(=O)COCCOCCNC(=O)COCCOCCNC(=O)CC[C@H](NC(=O)CC[C@H](NC(=O)CCCCCCCCCCCCCCCCCCC(=O)O)C(=O)O)C(=O)O)NC(=O)[C@H](C)NC(=O)[C@H](C)NC(=O)[C@H](CCCNC(=N)N)NC(=O)[C@H](CO)NC(=O)[C@H](CC(=O)O)NC(=O)[C@H](CC(C)C)NC(=O)[C@](C)(Cc1ccccc1)NC(=O)[C@H](CCCCN)NC(=O)[C@H](CO)NC(=O)[C@@H](NC(=O)[C@H](CC(=O)O)NC(=O)[C@H](CO)NC(=O)[C@@H](NC(=O)[C@](C)(Cc1ccccc1)NC(=O)[C@H](CO)NC(=O)CNC(=O)[C@H](Cc1c[nH]cn1)NC(=O)C(C)(C)NC(=O)[C@@H](N)Cc1c[nH]cn1)[C@@H](C)O)C(C)C)C(C)C)C(=O)N[C@@H](C)C(=O)N[C@@H](CC(N)=O)C(=O)N[C@H](C(N)=O)[C@@H](C)O` [Peptide 233] (H-H[Aib]HGS[αMeF]TSDVSK[αMeF]LDSRAAK([AEEA-AEEA-γGlu-γGlu-C20 diacid])D[αMeF]VE[Aib]IANT-NH2; N-terminus assumed): in assay [1], the EC50 is 0.44 nM and the “% Relative Potency Ratio” value was 1.8. Moreover, the EC50 in assay [2] amounted to 0.407 nM.

`CC[C@H](C)[C@H](NC(=O)C(C)(C)NC(=O)[C@H](CCC(N)=O)NC(=O)[C@@H](NC(=O)[C@H](Cc1ccccc1)NC(=O)[C@H](CC(=O)O)NC(=O)[C@H](CCCCNC(=O)COCCOCCNC(=O)COCCOCCNC(=O)CC[C@H](NC(=O)CC[C@H](NC(=O)CCCCCCCCCCCCCCCCCCC(=O)O)C(=O)O)C(=O)O)NC(=O)[C@H](C)NC(=O)[C@H](C)NC(=O)[C@H](CCCNC(=N)N)NC(=O)[C@H](CO)NC(=O)[C@H](CC(=O)O)NC(=O)[C@H](CC(C)C)NC(=O)[C@](C)(Cc1ccccc1)NC(=O)[C@H](CCCCN)NC(=O)[C@H](CO)NC(=O)[C@@H](NC(=O)[C@H](CC(=O)O)NC(=O)[C@H](CO)NC(=O)[C@@H](NC(=O)[C@](C)(Cc1ccccc1)NC(=O)[C@H](CO)NC(=O)CNC(=O)[C@H](Cc1c[nH]cn1)NC(=O)C(C)(C)NC(=O)[C@@H](N)Cc1c[nH]cn1)[C@@H](C)O)C(C)C)C(C)C)C(=O)N[C@@H](C)C(=O)N[C@@H](CC(N)=O)C(=O)N[C@H](C(=O)NCC(N)=O)[C@@H](C)O` [Peptide 234] (H-H[Aib]HGS[αMeF]TSDVSK[αMeF]LDSRAAK([AEEA-AEEA-γGlu-γGlu-C20 diacid])DFVQ[Aib]IANTG-NH2): the concentration giving a half-maximal response (EC50) in assay [1] worked out at 0.068 nM; in assay [2] it was 1.29 nM. Moreover, the “% Relative Potency Ratio” value in assay [1] is 37.4.

As for `CC[C@H](C)[C@H](NC(=O)C(C)(C)NC(=O)[C@H](CCC(N)=O)NC(=O)[C@@H](NC(=O)[C@H](Cc1ccccc1)NC(=O)[C@H](CC(=O)O)NC(=O)[C@H](CCCCNC(=O)COCCOCCNC(=O)COCCOCCNC(=O)CC[C@H](NC(=O)CC[C@H](NC(=O)CCCCCCCCCCCCCCCCC(=O)O)C(=O)O)C(=O)O)NC(=O)[C@H](C)NC(=O)[C@H](C)NC(=O)[C@H](CCCNC(=N)N)NC(=O)[C@H](CO)NC(=O)[C@H](CC(=O)O)NC(=O)[C@H](CC(C)C)NC(=O)[C@](C)(Cc1ccccc1)NC(=O)[C@H](CCCCN)NC(=O)[C@H](CO)NC(=O)[C@@H](NC(=O)[C@H](CC(=O)O)NC(=O)[C@H](CO)NC(=O)[C@@H](NC(=O)[C@](C)(Cc1ccccc1)NC(=O)[C@H](CO)NC(=O)CNC(=O)[C@H](Cc1c[nH]cn1)NC(=O)C(C)(C)NC(=O)[C@@H](N)Cc1c[nH]cn1)[C@@H](C)O)C(C)C)C(C)C)C(=O)N[C@@H](C)C(=O)N[C@@H](CC(N)=O)C(=O)N[C@H](C(=O)NCC(N)=O)[C@@H](C)O` [Peptide 236] (H-H[Aib]HGS[αMeF]TSDVSK[αMeF]LDSRAAK([AEEA-AEEA-γGlu-γGlu-C18 diacid])DFVQ[Aib]IANTG-NH2), in assay [1], the EC50 was 0.0221 nM and the “% Relative Potency Ratio” value worked out at 19.2. Also, the concentration giving a half-maximal response (EC50) in assay [2] stood at 0.215 nM.

Regarding `CC[C@H](C)[C@H](NC(=O)C(C)(C)NC(=O)[C@H](CCC(N)=O)NC(=O)[C@@H](NC(=O)[C@H](Cc1ccccc1)NC(=O)[C@H](CC(=O)O)NC(=O)[C@H](CCCCNC(=O)COCCOCCNC(=O)COCCOCCNC(=O)CC[C@H](NC(=O)CC[C@H](NC(=O)CCCCCCCCCCCCCCCCC(=O)O)C(=O)O)C(=O)O)NC(=O)[C@H](C)NC(=O)[C@H](C)NC(=O)[C@H](CCCNC(=N)N)NC(=O)[C@H](CO)NC(=O)[C@H](CC(=O)O)NC(=O)[C@H](CC(C)C)NC(=O)[C@](C)(Cc1ccccc1)NC(=O)[C@H](CCCCN)NC(=O)[C@H](CO)NC(=O)[C@@H](NC(=O)[C@H](CC(=O)O)NC(=O)[C@H](CO)NC(=O)[C@@H](NC(=O)[C@](C)(Cc1ccccc1)NC(=O)[C@H](CO)NC(=O)CNC(=O)[C@H](Cc1c[nH]cn1)NC(=O)C(C)(C)NC(=O)[C@@H](N)Cc1c[nH]cn1)[C@@H](C)O)C(C)C)C(C)C)C(=O)N[C@@H](C)C(=O)N[C@@H](CC(N)=O)C(=O)N[C@H](C(=O)NCC(=O)NCC(N)=O)[C@@H](C)O` [Peptide 237] (H-H[Aib]HGS[αMeF]TSDVSK[αMeF]LDSRAAK([AEEA-AEEA-γGlu-γGlu-C18 diacid])DFVQ[Aib]IANTGG-NH2; N-terminus assumed), the EC50 was 0.0267 nM in assay [1] and 0.299 nM in assay [2]. Further, the “% Relative Potency Ratio” value in assay [1] is on record as 22.1.

As to `CC[C@H](C)[C@H](NC(=O)[C@H](Cc1c[nH]c2ccccc12)NC(=O)[C@H](CCC(N)=O)NC(=O)[C@@H](NC(=O)[C@](C)(Cc1ccccc1)NC(=O)[C@H](CC(=O)O)NC(=O)[C@H](CCCCNC(=O)COCCOCCNC(=O)COCCOCCNC(=O)CC[C@H](NC(=O)CC[C@H](NC(=O)CCCCCCCCCCCCCCCCCCC(=O)O)C(=O)O)C(=O)O)NC(=O)[C@H](C)NC(=O)[C@H](C)NC(=O)[C@H](CCCNC(=N)N)NC(=O)[C@H](CO)NC(=O)[C@H](CC(=O)O)NC(=O)[C@H](CC(C)C)NC(=O)[C@](C)(Cc1ccccc1)NC(=O)[C@H](CCCCN)NC(=O)[C@H](CO)NC(=O)[C@@H](NC(=O)[C@H](CC(=O)O)NC(=O)[C@H](CO)NC(=O)[C@@H](NC(=O)[C@](C)(Cc1ccccc1)NC(=O)[C@H](CO)NC(=O)CNC(=O)[C@H](Cc1c[nH]cn1)NC(=O)C(C)(C)NC(=O)[C@@H](N)Cc1c[nH]cn1)[C@@H](C)O)C(C)C)C(C)C)C(=O)N[C@@H](C)C(=O)N[C@@H](CC(N)=O)C(=O)N[C@H](C(=O)NCC(N)=O)[C@@H](C)O` [Peptide 238] (H-H[Aib]HGS[αMeF]TSDVSK[αMeF]LDSRAAK([AEEA-AEEA-γGlu-γGlu-C20 diacid])D[αMeF]VQWIANTG-NH2), the figures for the EC50 in assay [1] and in assay [2] were 0.155 nM and 0.99 nM, respectively. The “% Relative Potency Ratio” value in assay [1] is given as 12.7.

In the case of `CC[C@H](C)[C@H](NC(=O)[C@H](Cc1c[nH]c2ccccc12)NC(=O)[C@H](CCC(N)=O)NC(=O)[C@@H](NC(=O)[C@](C)(Cc1ccccc1)NC(=O)[C@H](CC(=O)O)NC(=O)[C@H](CCCCNC(=O)COCCOCCNC(=O)COCCOCCNC(=O)CC[C@H](NC(=O)CC[C@H](NC(=O)CCCCCCCCCCCCCCCCCCC(=O)O)C(=O)O)C(=O)O)NC(=O)[C@H](C)NC(=O)[C@H](C)NC(=O)[C@H](CCCNC(=N)N)NC(=O)[C@H](CO)NC(=O)[C@H](CC(=O)O)NC(=O)[C@H](CC(C)C)NC(=O)[C@](C)(Cc1ccccc1)NC(=O)[C@H](CCCCN)NC(=O)[C@H](CO)NC(=O)[C@@H](NC(=O)[C@H](CC(=O)O)NC(=O)[C@H](CO)NC(=O)[C@@H](NC(=O)[C@](C)(Cc1ccccc1)NC(=O)[C@H](CO)NC(=O)CNC(=O)[C@H](Cc1c[nH]cn1)NC(=O)C(C)(C)NC(=O)[C@@H](N)Cc1c[nH]cn1)[C@@H](C)O)C(C)C)C(C)C)C(=O)N[C@@H](C)C(=O)N[C@@H](CC(N)=O)C(=O)N[C@H](C(=O)NCC(=O)NCC(N)=O)[C@@H](C)O` [Peptide 239] (H-H[Aib]HGS[αMeF]TSDVSK[αMeF]LDSRAAK([AEEA-AEEA-γGlu-γGlu-C20 diacid])D[αMeF]VQWIANTGG-NH2), the EC50 worked out at 0.105 nM in assay [1] and 0.705 nM in assay [2]. Moreover, the “% Relative Potency Ratio” value in assay [1] came to 13.2.
